Laboratory results as given in patent US10300091B2, “Sustained release angiogenesis modulating compositions and methods for induction and modulation of angiogenesis” (University of Florida Research Foundation, Inc., priority 2013, dated 2019).

Tested on: HUVEC
Experiment: Screening of TSP-1 in hPE-based angiogenesis assay
Assay type: cell-based, human
Procedure: Unless otherwise stated, 32 μl of placental extract was thawed and pipetted into each well of a 96 well plate. The extract was evenly coated onto the bottom of each well using an orbital shaker at 30 RPM for 1 minute. The coated plate was then incubated at 37° C. for 30 minutes. HUVEC were then plating by direct pipetting at 20000 cells/cm^2, 40000 cells/cm^2, or 80000 cells/cm^2. Multiple time points were investigated at each concentration including at days 1, 3, and 5. Thrombospondin-1 was tested as an angiogenesis inhibiting drug using final concentrations 0, 5, 10, 20, and 35 μg/μL diluted in endothelial cell media
Network formation was analyzed after staining at a concentration of 2 μg/mL Calcein AM (Invitrogen-Life Technologies, NY, USA) with Endothelial cell culture media. In a dark room, dyed cells were incubated at 37° C., 5% CO2 for 30 minutes, and then images were taken using a Zeiss Axiovert 200 inverted Fluorescence microscope (Zeiss, Thornwood, N.Y.). Images were analyzed to determine the tubule length, tubule width, branch points, and other meshwork characterizations using ImageJ 1.45s (NIH, Bethesda, Md.). Branch points were assigned manually as the positions at every node where branches meet or tubules sprout, and tubule length was assessed by determining the curve length from branch point to connected branch point. Tubule width measurements were carried out in three different zones per tubule, with two zones each 10 μm from the start and end and one zone in the middle of the curve length. The percent area of coverage was determined by processing the images using the imageJ function “binary>>convert to mask” followed by measurement of the “mean.” In TSP-1 experiments, final values were normalized to no dose samples, calculated as the percentage of “1” values relative to the total count of pixel values, and given as “% area coverage”.

TSP-1: glycoprotein with potent inhibition activity on neovascularization; model anti-angiogenic drug
angiogenic network formation with TSP-1 (HUVEC on hPE treated plates, 1 d of culture): significantly reduced angiogenic network formation | total tubule-length and branch points as a function of TSP-1 concentration (hPE-coated plates, 0-35 μg/μL TSP-1): decrease linearly | effect of TSP-1 on control HUVECs (seeded directly onto uncoated tissue culture plates, 1 d): not affected
